Assay results as given in US20060084134A1, “Direct ethanol metabolite ethyl sulfate as an useful diagnostic and therapeutic marker of alcohol consumption” (priority 2004, published 2006).
Counter-ions that a name gives are not always drawn. Like-named read-outs stand apart in the source and are kept apart here. Blank lines part the entries; values can stand above or below the compound they belong to.

Key:
[1] = cited from earlier work
[2] = human, in vivo
Procedure: (§1) Characteristic tandem-mass spectrometric fragmention of EtS, purchased from ABCR Karlsruhe/Germany, was obtained when analyzing EtS solution in product ion scan mode: deprotonated molecule (M-H)^−, m/z 125 and fragment ions m/z 80 and 97. An LC-MS/MS-method, which has previously been published for the determination of EtG (Weinmann 2004), was modified by inclusion of the transitions for EtS. Subsequent LC/MS/MS-analysis was performed in MRM-mode (m/z 125 to m/z 97 and m/z 80 and by monitoring the unfragmented precursor ion (m/z 125) of EtS (ion chromatograms of diluted reference solution see FIG. 1). A gradient elution with increasing acetonitrile concentration of the eluting solvent was used—all other chromatographic equipment was as described in the article by Weinmann et al. (Weinmann 2004).
(§2) Sample preparation was done by addition of D5-EtG and dilution of the urine sample prior to injection in the LC-MS/MS system. Quantification was performed using D5-EtG as internal standard.

[3] = cited from earlier work; remark: listed apart in the source
[4] = Controlled drinking experiment with a healthy volunteer: urinary excretion profile by LC-MS/MS; settings: for UAC (urine alcohol concentration): 540 ml wine, 49 g ethanol
Procedure: as §1, §2

Compound: CCO[C@@H]1O[C@H](C(=O)O)[C@@H](O)[C@H](O)[C@H]1O [EtG, ethyl glucuronide]
- water solubility (in words) [1]: water-soluble
- detection in urine at the last time point [2]: positive
- time detectable following complete elimination of alcohol from the body ([3]; dose-dependently, after even minor amounts of alcohol like 10 grams): 4 days
- time detectable in hair [3]: months
- time detectable in urine after cessation of ethanol intake ([3]; urine): up to 5 days

Compound: fatty acid ethyl esters [FAEEs]
- stability in blood samples (in words) ([1]; blood samples, continued enzyme activity): not stable
- time detectable in hair [3]: several months
- time detectable in hair ([3]; listed as FAEE): months
- time detectable in serum and erythrocytes after drinking ([3]; serum and erythrocytes): up to 24 h
- time detectable in serum after cessation of ethanol intake ([3]; serum): up to 24 h

Compound: phosphatidylethanol [PEth]
- time detectable in whole blood after cessation of ethanol intake ([3]; whole blood): > 2 weeks

Second part, the compound after the results:

- time detectable in urine [2]: up to 36 hours
Compound: CCOS(=O)(=O)O [EtS, ethyl sulfate]

- time since which urinary ethanol (UAC) had not been detectable ([4]; counted back from the 36 hours time point): 23 h
- UAC (urine alcohol concentration) ([4]; 0 h:min after ethanol uptake): 0.003 g %
- UAC (urine alcohol concentration) ([4]; 1:00 h:min after ethanol uptake): 0.022 g %
- UAC (urine alcohol concentration) ([4]; 2:06 h:min after ethanol uptake): 0.078 g %
- UAC (urine alcohol concentration) ([4]; 2:46 h:min after ethanol uptake): 0.082 g %
- UAC (urine alcohol concentration) ([4]; 8:00 h:min after ethanol uptake): 0.046 g %
- UAC (urine alcohol concentration) ([4]; 11:20 h:min after ethanol uptake): 0.003 g %
- UAC (urine alcohol concentration) ([4]; 13:20 h:min after ethanol uptake): 0 g %
- UAC (urine alcohol concentration) ([4]; 14:50 h:min after ethanol uptake): 0 g %
- UAC (urine alcohol concentration) ([4]; 16:40 h:min after ethanol uptake): 0 g %
- UAC (urine alcohol concentration) ([4]; 19:10 h:min after ethanol uptake): 0 g %
- UAC (urine alcohol concentration) ([4]; 21:30 h:min after ethanol uptake): 0 g %
- UAC (urine alcohol concentration) ([4]; 26:30 h:min after ethanol uptake): 0 g %
- UAC (urine alcohol concentration) ([4]; 32:00 h:min after ethanol uptake): 0 g %
- UAC (urine alcohol concentration) ([4]; 36:00 h:min after ethanol uptake): 0 g %
Compound: CCO [ethanol]
